Measurements: patent US8957087B2, “Heterocyclic substituted acardite derivate and application thereof” (Jiangsu Provincial Institute of Materia Medica Co., Ltd., priority 2009, dated 2015)

Assays:
[1] = test system: mice S180 sarcoma; experiment: Experimental therapeutic action on S180 sarcoma mice; conditions: for Tumor growth inhibition rate (%): mice S180 sarcoma, 60 mg/kg orally for 9 days
Experimental: Experimental therapeutic action of the compound in the present invention on S180 sarcoma mice
18-25 g female ICR mice and well grown 7-11 day old mice sarcoma S180 tumor seeds were selected, and the seeds were inoculated into the subcutaneous at the right axillary. After inoculated 24 hours, these mice were randomly divided into cages and orally administrated 60 mg/kg for 9 days. On 10 day, the animals were killed and weighed, and the tumor weights were weighed to calculate average tumor weight in each group, followed by calculating the tumor inhibition rate according to the following formula and T test.

[2] = test system: human lung cancer A549 transplantation tumor; assay type: in vivo; conditions: 60 mg/kg, 6 times every week for 3 weeks; for Relative tumor reproduction rate T/C (%) on human lung cancer A549 transplantation tumor in nude mice: BALB/cA nude mice, Sorafenib oral 60 mg/kg
In short: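 Female BALB/cA nude mice, 35-40 days old, bearing A549 human lung cancer transplants; 6 per treatment group, 12 saline controls. Compound given at 60 mg/kg, 6 times weekly for 3 weeks, then observed one week.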

[3] = test system: human umbilical vein endothelial cell HUVEC; experiment: Lumen formation ability of HUVEC (Matrigel method); assay type: cell-based; conditions: Final concentration 1 x 1.0*10^(−5) mol/L
In short: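 HUVEC at passage 3–5, cultured in M199 at 37° C under 5% CO2, were plated on Matrigel with compound. Spontaneous lumen formation was scored as an inhibition rate.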

[4] = test system: Human colon cancer HT-29 transplantable tumor; experiment: Human colon cancer HT-29 transplantable tumor in nude mice; conditions: for Relative tumor reproduction rate T/C (%): HT-29 in nude mice
Experimental: Experimental therapeutic action of the compound in the present invention on Human colon cancer HT-29 transplantable tumor in nude mice.
Take eugenic tumor tissues and cut into about 1.5 mm^3, and then incoculate subcutaneously at the right armpit of nude mice under the sterile conditions. The diameter of the transplantable tumor in nude mice was determined with a vernier caliper, and the animals were divided into groups after the tumors were grown to 100-300 mm^3. Using the method of measuring the tumor diameter, dynamically observe the antitumor effects of tested materials. The diameter of the tumor was determined three times every week and the mouse weight was weighed at the same time. […] The solvent was intragastrically administrated as the control for continuous 9 times. Equal amount of control was administrated in the negative control group.
Tumor volume (TV) is calculated as: TV=½×a×b^2, wherein a and b respectively represent length and width.
Relative tumor volume (RTV) is calculated as: RTV=TVt/TV0, wherein TV0 is the tumor volume when administrated according to different cages and TVt is the tumor volume measured each time.
Relative tumor reproduction rate T/C (%) is calculated as follows:
TRTV: RTV in the treatment group; CRTV: RTV in the negative control group.
The test results used relative tumor reproduction rate T/C (%) as evaluating indicator of anti-tumor activity.

[5] = test system: human umbilical vein endothelial cell HUVEC; experiment: Growth of human umbilical vein endothelial cell HUVEC by CCK8 method; assay type: cell-based; conditions: Final concentration 1 x 1.0*10^(−5) mol/L
In short: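 HUVEC cells were grown in 1640 medium with 10% FBS, and growth was measured by the CCK8 method. OD values of drug and control wells were corrected by subtracting the blank-well OD.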

[6] = test system: human lung cancer cell strain A549; experiment: MTT assay, inhibition of growth of human lung cancer cell strain A549; assay type: cell-based
In short: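 A549 cells grown in F12 with 10% FBS; growth read by MTT, inhibition rate from blank-corrected OD of drug wells versus control wells.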

[7] = test system: human high-metastic lung cancer cell 95D; experiment: Inhibition of human high-metastic lung cancer cell 95D migration (Boyden Chamber Transwell); assay type: cell-based; conditions: Final concentration 1 x 1.0*10^(−5) mol/L
In short: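 Boyden Transwell migration (8 μm pores) of 95D cells, RPMI-1640 with 10% FBS versus serum-free medium; inhibition rate calculated.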

[8] = test system: human liver cancer cell bel-7402 transplantation tumor; assay type: in vivo; conditions: 60 mg/kg, 6 times every week for 3 weeks; for Relative tumor reproduction rate T/C (%) on human liver cancer cell bel-7402 transplantation tumor model in nude mice: BALB/cA nude mice, Sorafenib oral 60 mg/kg
In short: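 Female BALB/cA nude mice (35–40 days, 18–22 g) bearing Bel-7402 xenografts; 6 mice per treated group, 12 in saline controls. Compound dosed at 60 mg/kg, 6 times weekly for 3 weeks, followed by one week of observation; tumor inhibition rate scored against controls.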

[9] = test system: renal carcinoma cell line GCR-1 transplanted tumor; assay type: in vivo, BALB/cA nude mice; conditions: 60 mg/kg, 6 times every week for 3 weeks; for Relative tumor reproduction rate T/C (%) on human renal carcinoma GCR-1 cell transplanted tumor model in nude mice: BALB/cA nude mice, Sorafenib oral 60 mg/kg
In short: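 Female BALB/cA nude mice (18–22 g) bearing GCR-1 renal carcinoma xenografts, 6 per treated group, 12 saline controls. Drug given at 60 mg/kg, 6 times weekly for 3 weeks, then one week of observation; tumor inhibition rate reported.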

[10] = test system: lung cancer cell A549; experiment: Effects on the adhesive ability of lung cancer cell A549; assay type: cell-based, human; conditions: Final concentration 1 x 1.0*10^(−5) mol/L
In short: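 A549 cells in 1640 medium with 10% FBS tested for adhesion to gelatin versus poly-lysine (PLL), with CCK8 used as read-out. Inhibition rate derived from the gelatin/PLL adhesion OD ratio of dosed cells relative to the undosed cell group.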

[11] = test system: Raf-1(truncated); experiment: Raf-1 inhibitor screening by chemoluminescence method; assay type: biochemical; conditions: Final concentration 1 x 1.0*10^−5 mol/ml
Source text: 1. Inhibitory activity of the compound of the present invention on raf kinase
Raf-1 inhibitor screening by chemoluminescence method
Westernblot electrophoresis apparatus Rotaryshaker
Raf-1(truncated), Magnesium/ATP Cocktail, MEK1 unactive

SMILES	Tumor growth inhibition rate (%) [1] [%]	Relative tumor reproduction rate T/C (%) on human lung cancer A549 transplantation tumor in nude mice [2] [%]	Inhibition rate, lumen formation ability of HUVEC [3] [%]	Relative tumor reproduction rate T/C (%) ([4]; 60 mg/kg ig 9 times)	Inhibition rate, growth of HUVEC cell [5] [%]	Inhibition rate, growth of human lung cancer cell A549 [6] [%]	Inhibition rate, 95D cell strain migration [7] [%]	Relative tumor reproduction rate T/C (%) on human liver cancer cell bel-7402 transplantation tumor model in nude mice [8] [%]	Relative tumor reproduction rate T/C (%) on human renal carcinoma GCR-1 cell transplanted tumor model in nude mice [9] [%]	Inhibition rate, adhesion ability of human lung cancer cell A549 [10] [%]	Inhibition rate % on raf kinase [11] [%]	also measured
CCc1ccc(NC(=O)Nc2ccc(Oc3ccnc4cc(F)c(OC)cc34)cc2)cc1C(F)(F)F [Compound 32, N-(4-ethyl-3-(trifluoromethyl)phenyl)-N′-(4-(4-(6-methoxyl-7-fluoro-quinolinyl)oxy)phenyl)urea]	49.8	35.3	54.74	46.2	24.77	45.76	66.92	31.4	32.5	64.73	90.5	–
CCc1cc(NC(=O)Nc2ccc(Oc3ccnc4cc(F)c(C)cc34)cc2)ccc1Cl [Compound 33, N-(4-chloro-3-ethylphenyl)-N′-(4-(4-(6-methyl-7-fluoro-quinolinyl)oxy)phenyl)urea]	55.3	37.5	67.51	39.9	17.50	57.53	77.52	32.7	33.4	77.59	92.3	–
CCc1ccc(NC(=O)Nc2ccc(Oc3ccnc4cc(F)c(C)cc34)cc2)cc1C(F)(F)F [Compound 34, N-(4-ethyl-3-(trifluoromethyl)phenyl)-N′-(4-(4-(6-methyl-7-fluoro-quinolinyl)oxy)phenyl)urea]	52.6	22.3	66.52	45.9	19.52	59.52	63.65	31.5	36.1	76.54	96.2	–
CCNC(=O)c1cc(Oc2ccc(NC(=O)Nc3ccc(Cl)c(OC)c3)c(C)c2)c2ccc([N+](=O)[O-])cc2n1 [Compound 35, N-(4-chloro-3-methoxyphenyl)-N′-(2-methyl-4-(2-(N-ethylcarbamyl)-4-(7-nitryl-quinolinyl)oxy)phenyl)urea]	55.8	23.6	65.70	51.2	5.74	55.74	68.47	34.5	32.3	75.72	45.3	–
CCNC(=O)c1cc(Oc2ccc(NC(=O)Nc3ccc(Cl)c(OC)c3)c(OC)c2)c2ccc([N+](=O)[O-])cc2n1 [Compound 36, N-(4-chloro-3-methoxyphenyl)-N′-(2-methoxyl-4-(2-(N-ethylcarbamyl)-4-(7-nitryl-quinolinyl)oxy)phenyl)urea]	55.1	37.9	64.50	41.5	12.45	72.45	84.59	37.9	25.9	74.50	81.2	–
CCCNC(=O)c1cc(Oc2ccc(NC(=O)Nc3ccc(Cl)c(OC)c3)c(F)c2)c2ccc(C(F)(F)F)cc2n1 [Compound 37]	24.1	38.3	71.72	39.5	19.65	71.65	79.25	36.3	32.3	71.74	81.5	–
CCCNC(=O)c1cc(Oc2ccc(NC(=O)Nc3ccc(Cl)c(OC)c3)c(C(F)(F)F)c2)c2ccc(C(F)(F)F)cc2n1 [Compound 38]	59.2	36.5	65.55	41.2	14.56	74.56	80.53	31.5	20.5	75.53	88.1	–
CNC(=O)c1cc(Oc2ccc(NC(=O)Nc3ccc(Cl)c(C(F)(F)F)c3)cc2)ccn1 [Sorafenib, reference compound]	–	–	55.60	–	22.61	54.60	62.32	–	–	72.66	85.7	Tumor weight x ± SD ([1]; 60 mg/kg ig for 9 days, day 10): 0.71 ± 0.30 g; Tumor growth inhibition rate (%) ([1]; 60 mg/kg): 55.9%; Tumor growth inhibition rate (%) ([1]; listed as Sora, 60 mg/kg): 55.9%; Mortality of the animals [2]: no mortality; Weight (g) d0 ([4]; nude mouse body weight d0, 60 mg/kg): 19.9 ± 1.1 g; Weight (g) d13 ([4]; nude mouse body weight d13, 60 mg/kg ig 9 times): 20.4 ± 1.4 g; RTV ([4]; relative tumor volume, 60 mg/kg ig 9 times): 2.36 ± 0.57; TV d0 ([4]; tumor volume d0, 60 mg/kg): 133 ± 33; TV d13 ([4]; tumor volume d13, 60 mg/kg ig 9 times): 308 ± 86; Mortality of the animals [8]: no mortality; Mortality of the animals [9]: no mortality
